From the NIST ThermoML archive (doi:10.1016/j.jct.2006.08.009)

Experiment: mn = molality of the nth substance listed, in mol/kg
Details: 350 kPa, Liquid; for apparent molar heat capacity: Extra sensitive DSC

OC[C@@H](O)[C@@H](O)CO [meso-1,2,3,4-butanetetrol] + O
Details	apparent molar heat capacity [J/K/mol]	mass density [kg/m3]
278.15 K, m1 = 0.0201	261	1000.64
278.15 K, m1 = 0.05	279	1001.78
278.15 K, m1 = 0.0999	275.3	1003.47
278.15 K, m1 = 0.2501	273	1009.14
278.15 K, m1 = 0.4998	272.1	1017.67
278.15 K, m1 = 1	270.3	1034.19
278.15 K, m1 = 2.002	264	1062.98
278.15 K, m1 = 3.003	267.2	1087.04
283.15 K, m1 = 0.0201	273	1000.38
283.15 K, m1 = 0.05	290	1001.54
283.15 K, m1 = 0.0999	287.2	1003.19
283.15 K, m1 = 0.2501	285.1	1008.79
283.15 K, m1 = 0.4998	284.1	1017.48
283.15 K, m1 = 1	282.7	1033.48
283.15 K, m1 = 2.002	277.2	1061.96
283.15 K, m1 = 3.003	279.1	1085.8
288.15 K, m1 = 0.0201	282	999.84
288.15 K, m1 = 0.05	300	1000.96
288.15 K, m1 = 0.0999	296.3	1002.66
288.15 K, m1 = 0.2501	294.4	1008.13
288.15 K, m1 = 0.4998	293.4	1016.68
288.15 K, m1 = 1	291.9	1032.49
288.15 K, m1 = 2.002	286.3	1060.61
288.15 K, m1 = 3.003	288	1084.24
293.15 K, m1 = 0.0201	290	–
293.15 K, m1 = 0.05	307	–
293.15 K, m1 = 0.0999	303.8	–
293.15 K, m1 = 0.2501	302.3	–
293.15 K, m1 = 0.4998	301.3	–
293.15 K, m1 = 1	299.9	–
293.15 K, m1 = 2.002	294.2	–
293.15 K, m1 = 3.003	295.7	–
298.15 K, m1 = 0.0201	296	997.79
298.15 K, m1 = 0.05	314	998.88
298.15 K, m1 = 0.0999	310.6	1000.55
298.15 K, m1 = 0.2501	309	1005.86
298.15 K, m1 = 0.4998	308.1	1014.19
298.15 K, m1 = 1	306.6	1029.78
298.15 K, m1 = 2.002	300.7	1057.38
298.15 K, m1 = 3.003	302.1	1080.61
303.15 K, m1 = 0.0201	301	–
303.15 K, m1 = 0.05	320	–
303.15 K, m1 = 0.0999	316.6	–
303.15 K, m1 = 0.2501	315	–
303.15 K, m1 = 0.4998	314	–
303.15 K, m1 = 1	312.5	–
303.15 K, m1 = 2.002	306.6	–
303.15 K, m1 = 3.003	307.8	–
308.15 K, m1 = 0.0201	307	994.74
308.15 K, m1 = 0.05	325	995.77
308.15 K, m1 = 0.0999	321.8	997.29
308.15 K, m1 = 0.2501	320.2	1002.7
308.15 K, m1 = 0.4998	319.2	1010.88
308.15 K, m1 = 1	317.6	1026.18
308.15 K, m1 = 2.002	311.8	1053.42
308.15 K, m1 = 3.003	312.9	1076.46
313.15 K, m1 = 0.0201	311	–
313.15 K, m1 = 0.05	330	–
313.15 K, m1 = 0.0999	326.5	–
313.15 K, m1 = 0.2501	324.8	–
313.15 K, m1 = 0.4998	323.8	–
313.15 K, m1 = 1	322.3	–
313.15 K, m1 = 2.002	316.4	–
313.15 K, m1 = 3.003	317.4	–
318.15 K, m1 = 0.0201	315	990.96
318.15 K, m1 = 0.05	334	991.95
318.15 K, m1 = 0.0999	330.6	993.44
318.15 K, m1 = 0.2501	328.9	998.78
318.15 K, m1 = 0.4998	327.9	1006.84
318.15 K, m1 = 1	326.4	1021.96
318.15 K, m1 = 2.002	320.6	1048.89
318.15 K, m1 = 3.003	321.5	1071.67
323.15 K, m1 = 0.0201	318	–
323.15 K, m1 = 0.05	338	–
323.15 K, m1 = 0.0999	334.4	–
323.15 K, m1 = 0.2501	332.7	–
323.15 K, m1 = 0.4998	331.6	–
323.15 K, m1 = 1	330.1	–
323.15 K, m1 = 2.002	324.5	–
323.15 K, m1 = 3.003	325.24	–
328.15 K, m1 = 0.0201	322	986.49
328.15 K, m1 = 0.05	341	987.47
328.15 K, m1 = 0.0999	337.8	988.94
328.15 K, m1 = 0.2501	336	994.21
328.15 K, m1 = 0.4998	335	1002.15
328.15 K, m1 = 1	333.5	1017.15
328.15 K, m1 = 2.002	328	1043.78
328.15 K, m1 = 3.003	328.66	1066.4
333.15 K, m1 = 0.0201	325	–
333.15 K, m1 = 0.05	344	–
333.15 K, m1 = 0.0999	341	–
333.15 K, m1 = 0.2501	339.2	–
333.15 K, m1 = 0.4998	338.1	–
333.15 K, m1 = 1	336.7	–
333.15 K, m1 = 2.002	331.2	–
333.15 K, m1 = 3.003	331.8	–
338.15 K, m1 = 0.0201	328	981.39
338.15 K, m1 = 0.05	347	982.33
338.15 K, m1 = 0.0999	343.9	983.83
338.15 K, m1 = 0.2501	342	988.99
338.15 K, m1 = 0.4998	340.9	996.87
338.15 K, m1 = 1	339.5	1011.73
338.15 K, m1 = 2.002	334.2	1038.15
338.15 K, m1 = 3.003	334.7	1060.56
343.15 K, m1 = 0.0201	330	–
343.15 K, m1 = 0.05	350	–
343.15 K, m1 = 0.0999	346.4	–
343.15 K, m1 = 0.2501	344.5	–
343.15 K, m1 = 0.4998	343.5	–
343.15 K, m1 = 1	342.1	–
343.15 K, m1 = 2.002	336.9	–
343.15 K, m1 = 3.003	337.33	–
348.15 K, m1 = 0.0201	332	975.69
348.15 K, m1 = 0.05	352	976.65
348.15 K, m1 = 0.0999	348.7	978.12
348.15 K, m1 = 0.2501	346.8	983.23
348.15 K, m1 = 0.4998	345.8	991.14
348.15 K, m1 = 1	344.4	1005.88
348.15 K, m1 = 2.002	339.4	1032.07
348.15 K, m1 = 3.003	339.73	1054.35
353.15 K, m1 = 0.0201	334	–
353.15 K, m1 = 0.05	354	–
353.15 K, m1 = 0.0999	350.7	–
353.15 K, m1 = 0.2501	348.9	–
353.15 K, m1 = 0.4998	347.8	–
353.15 K, m1 = 1	346.5	–
353.15 K, m1 = 2.002	341.77	–
353.15 K, m1 = 3.003	341.88	–
358.15 K, m1 = 0.0201	336	969.51
358.15 K, m1 = 0.05	356	970.13
358.15 K, m1 = 0.0999	352.4	971.92
358.15 K, m1 = 0.2501	350.5	976.99
358.15 K, m1 = 0.4998	349.5	984.82
358.15 K, m1 = 1	348.2	999.52
358.15 K, m1 = 2.002	343.88	1025.52
358.15 K, m1 = 3.003	343.6	1047.59
363.15 K, m1 = 0.0201	337	–
363.15 K, m1 = 0.05	357	–
363.15 K, m1 = 0.0999	353	–
363.15 K, m1 = 0.2501	351.1	–
363.15 K, m1 = 0.4998	350	–
363.15 K, m1 = 1	348.7	–
363.15 K, m1 = 2.002	345.8	–
363.15 K, m1 = 3.003	344.06	–
368.15 K, m1 = 0.0201	–	962.63
368.15 K, m1 = 0.05	–	963.59
368.15 K, m1 = 0.0999	–	965.08
368.15 K, m1 = 0.2501	–	970.07
368.15 K, m1 = 0.4998	–	978.02
368.15 K, m1 = 1	–	992.7
368.15 K, m1 = 2.002	–	1018.73
368.15 K, m1 = 3.003	–	1041.19
